{
  "source": "patent US20250340885A1",
  "about": "“COMPOSITIONS AND METHODS FOR MODULATING CONDITIONS ASSOCIATED WITH ALTERED ATP8B1 FUNCTION” (CLEVELAND STATE UNIVERSITY, priority 2024, published 2025)",
  "key": {"human ATP8B1": {"target": "T1, human ATP8B1 (Homo sapiens, UniProt O43520)", "T1 sequence (O43520 1-1251)": "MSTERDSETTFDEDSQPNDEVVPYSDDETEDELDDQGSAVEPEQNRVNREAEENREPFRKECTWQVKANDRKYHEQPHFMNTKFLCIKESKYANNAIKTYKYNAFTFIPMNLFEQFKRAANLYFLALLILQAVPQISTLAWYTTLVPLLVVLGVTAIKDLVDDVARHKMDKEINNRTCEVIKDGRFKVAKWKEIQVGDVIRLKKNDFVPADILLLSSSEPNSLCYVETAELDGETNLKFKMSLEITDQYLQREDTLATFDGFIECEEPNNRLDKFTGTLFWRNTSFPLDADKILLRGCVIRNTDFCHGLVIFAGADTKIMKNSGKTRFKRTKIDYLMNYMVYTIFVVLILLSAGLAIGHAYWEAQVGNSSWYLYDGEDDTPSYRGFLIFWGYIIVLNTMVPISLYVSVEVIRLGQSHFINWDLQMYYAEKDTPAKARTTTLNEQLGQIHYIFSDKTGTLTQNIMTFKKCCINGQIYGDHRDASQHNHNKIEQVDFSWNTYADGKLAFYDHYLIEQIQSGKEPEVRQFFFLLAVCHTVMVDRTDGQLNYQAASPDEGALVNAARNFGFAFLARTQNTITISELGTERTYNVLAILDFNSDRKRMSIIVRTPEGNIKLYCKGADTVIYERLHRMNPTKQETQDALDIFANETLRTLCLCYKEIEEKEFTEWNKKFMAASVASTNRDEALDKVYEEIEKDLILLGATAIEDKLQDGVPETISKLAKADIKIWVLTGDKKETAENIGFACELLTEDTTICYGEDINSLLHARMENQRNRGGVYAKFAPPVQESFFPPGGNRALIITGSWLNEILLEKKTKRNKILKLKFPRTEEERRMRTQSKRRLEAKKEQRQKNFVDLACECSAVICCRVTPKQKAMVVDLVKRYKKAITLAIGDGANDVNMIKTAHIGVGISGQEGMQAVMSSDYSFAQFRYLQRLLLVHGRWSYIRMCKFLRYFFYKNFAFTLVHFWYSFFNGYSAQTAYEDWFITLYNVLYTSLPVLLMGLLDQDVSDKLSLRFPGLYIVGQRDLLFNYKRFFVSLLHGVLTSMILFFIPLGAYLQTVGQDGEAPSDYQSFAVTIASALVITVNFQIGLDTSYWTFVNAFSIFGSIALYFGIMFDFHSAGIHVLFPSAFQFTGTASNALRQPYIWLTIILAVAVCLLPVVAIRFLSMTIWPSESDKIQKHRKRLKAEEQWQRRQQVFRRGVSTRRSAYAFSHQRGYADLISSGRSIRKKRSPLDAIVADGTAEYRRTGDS", "assay": "Phospholipid-stimulated ATPase activity of full-length ATP8B1", "assay_type": "biochemical", "procedure": "FIG. 8E is a bar graph showing ATPase activity of ATP8B1 in presence of various lipids (300 µM).\nFIG. 8F is a graph showing phospholipid concentration-dependent ATPase activity of ATP8B1. Graph representing data points of three independent experiments, values are mean±SD and fitted by a non-linear dose-dependent curve.\nATP8B1 deletion may affect PIP2 translocation due to changes in membrane properties or by indirectly influencing the activity of other proteins involved in lipid trafficking. To determine if ATP8B1 can directly flip PIP2, a cell-free system was reconstituted. The GST-tagged human ATP8B1 protein was cloned in a baculovirus, followed by transduction of insect Sf9 cells, and expression was confirmed by western blot using anti-GST antibody.\n(§1) Next, we utilized reconstituted ATP8B1-proteoliposomes with NBD-labeled phospholipids and sodium dithionite quenching assay to measure phospholipid flip (FIG. 8G), as described before. A marked decrease in the fluorescence intensity of NBD-PIP2 was observed following dithionite quenching of ATP8B1 containing proteoliposomes vs. control liposomes, with ˜12% NBD-PIP2 flip in 5 min, ˜22% NBD-PIP2 flip in 30 min, and ˜27% NBD-PIP2 flipped in 60 min (FIG. 8H, 8I)."}, "GsdmD": {"target": "T2, GsdmD (Homo sapiens, UniProt P57764)", "T2 sequence (P57764 1-484)": "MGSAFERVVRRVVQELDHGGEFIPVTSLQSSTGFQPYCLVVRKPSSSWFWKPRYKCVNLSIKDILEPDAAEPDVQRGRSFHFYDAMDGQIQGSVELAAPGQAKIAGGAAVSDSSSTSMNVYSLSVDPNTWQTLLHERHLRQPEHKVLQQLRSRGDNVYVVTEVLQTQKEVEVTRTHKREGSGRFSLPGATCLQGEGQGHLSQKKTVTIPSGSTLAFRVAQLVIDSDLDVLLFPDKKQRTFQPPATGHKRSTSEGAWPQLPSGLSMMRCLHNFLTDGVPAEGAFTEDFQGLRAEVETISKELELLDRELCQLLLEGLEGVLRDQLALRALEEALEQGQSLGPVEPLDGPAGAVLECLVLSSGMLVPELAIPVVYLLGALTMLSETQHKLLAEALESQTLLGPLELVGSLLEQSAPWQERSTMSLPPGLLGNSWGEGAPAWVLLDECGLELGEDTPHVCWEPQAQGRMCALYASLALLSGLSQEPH", "conditions": "cited from earlier work"}, "[1]": {"tested_on": "HepG2 cells (WT or ATP8b1−/−)", "assay": "Confocal-microscopy-based NBD-phospholipid flip assay with BSA back-exchange", "assay_type": "cell-based, human", "conditions": "after BSA wash, up to 60 min", "procedure": "(§2) FIG. 8A is an image of WT or ATP8b1^−/− HepG2 cells pre-incubated with phospholipase inhibitors at 20° C. were supplemented with NBD-PIP2 followed by incubation for up to 60 min to allow lipid internalization. Cells were subjected to back-exchange with BSA, followed by TBSS wash, and visualization by confocal laser scanning microscopy. FIRE look-up table (ImageJ) was used to highlight intensity variations in PIP2 flip. Images are representative of three independent experiments. Scale bar: 20 μm.\nas §2, with “8B” for “8A”, “NBD-PE” for “NBD-PIP2”\nFIG. 8C is a graph showing quantification of flipped NBD-PIP2 in WT and ATP8b1^−/− HePG2 cells (N=25 cells, values are mean±SD; **** show p<0.0001 by t-test.\nFIG. 8D is a graph showing quantification of flipped NBD-PE in WT and ATP8b1^−/− HePG2 cells (N=25 cells, values are mean±SD; **** show p<0.0001 by t-test. […]"}, "ATP8B1 proteoliposomes": {"target": "T3, ATP8B1 proteoliposomes (Homo sapiens, UniProt O43520)", "T3 construct": "The ATPase activity of full-length ATP8B1 was determined in the presence of various phospholipids; GST; made in house; host or cells: Sf9 insect cells (baculovirus)", "T3 sequence (O43520 1-1251)": "T1 sequence (O43520 1-1251)", "assay": "NBD-phospholipid flip in ATP8B1 proteoliposomes, sodium dithionite quenching assay", "assay_type": "biochemical", "conditions": "proteoliposomes vs. empty liposomes", "procedure": "FIG. 8G is a schematic diagram for PIP2 flip assay in ATP8B1 proteoliposomes vs. empty liposomes.\nFIG. 8H is a graph showing sodium dithionite quenching of NBD-PIP2 on the outer side of the proteoliposomes vs. empty liposomes over 10 min, Triton-X-100 was used to quench all the remaining NBD-PIP2.\nFIG. 8I is a graph showing the percentage PIP2 flipped over time in proteoliposomes vs. empty liposomes±sodium dithionite, ±Triton-X-100, data are from 3 independent experiments, values are mean±SD, **** show p<0.0001 by t-test.\nFIG. 8J is a graph showing sodium dithionite quenching of NBD-PE on the outer side of the proteoliposomes vs. empty liposomes over 10 min, Triton-X-100 was used to quench the remaining inner leaflet NBD-PE.\nFIG. 8K is a bar graph showing the percentage PE flip over time in proteoliposomes vs. empty liposomes±Sodium dithionite, ±Triton-X-100. […]\nas §1"}},
  "note": "Counter-ions that a name gives are not always drawn.",
  "data": [
    {"compound": "CCCCCCCC/C=C\\CCCCCCCC(=O)OC[C@H](COP(=O)(O)O[C@@H]1[C@H](O)[C@H](O)[C@@H](OP(=O)(O)O)[C@H](OP(=O)(O)O)[C@H]1O)OC(=O)CCCCCCC/C=C\\CCCCCCCC", "note": "[PIP2, phosphatidylinositol-4,5-bisphosphate]", "values": [
      {"measurement": "ATPase activity of full-length ATP8B1", "setting": "human ATP8B1; 300 μM lipid", "value": "notable increase in ATPase activity"}
    ]},
    {"compound": "COC(=O)/C=C/C(=O)OC", "note": "[dimethyl fumarate]", "values": [
      {"measurement": "effect on GsdmD", "setting": "GsdmD", "value": "promotes succination of GsdmD"}
    ]},
    {"compound": "NBD-PE", "values": [
      {"measurement": "flip of NBD-lipid in ATP8B1−/− vs. WT cells", "setting": "[1]", "value": "no differences"},
      {"measurement": "NBD-lipid flip", "setting": "ATP8B1 proteoliposomes", "value": "No significant changes"}
    ]},
    {"compound": "phosphatidylcholine [PC]", "values": [
      {"measurement": "EC50 of stimulated activity of ATP8B1 relative to PIP2", "setting": "human ATP8B1; higher than PIP2", "value": 1.75, "unit": "fold"}
    ]}
  ]
}
